Results from patent US9132140B2, “Boronic acid derivatives and therapeutic uses thereof” (Rempex Pharmaceuticals, Inc., priority 2013, dated 2015).

Key:
Format in all cases: cell-based, Klebsiella pneumoniae
[1] = system: KP1004 (KPC TEM SHV)
Description: (§1) Several strains simultaneously expressing both class A and class B carbapenemases, which were constructed using conjugation, were also included in the panel.

[2] = system: KP1054 (VIM-1, SHV-11)
Description: as §1

[3] = system: KP1059 (VIM-1, SHV-11)
Description: as §1

[4] = system: KP1061 (KPC TEM SHV)
Description: as §1

[5] = system: KP1070 (KPC TEM SHV)
Description: as §1

[6] = system: KP1081 (NDM-1, TEM-1, SHV-11, CMY-6, CTX-M-15)
Description: as §1

[7] = system: KP1084 (KPC-3, SHV-11, TEM-1)
Description: as §1

[8] = system: KPM1107 (NDM, KPC)
Description: as §1

[9] = system: KPM1108 (NDM, KPC)
Description: as §1

[10] = system: KPM1109 (NDM, KPC)
Description: as §1

[11] = system: KPM1110 (NDM, KPC)
Description: as §1

[12] = system: KPM1111 (NDM, KPC)
Description: as §1

[13] = system: KPM1122 (NDM, VIM)
Description: as §1

[14] = system: KPM1123 (KPC-2 TEM SHV)
Description: as §1

[15] = system: KPM1344 (VIM-1)
Description: as §1

[16] = system: KPM1346 (NDM-1 TEM SHV CTX-M-15 CMY)
Description: as §1

[17] = system: KPM1347 (NDM-1 SHV CTX-M-15)
Description: as §1

Nn1cnnc1S[C@H]1Cc2cccc(C(=O)O)c2OB1O [Compound 14, (R)-3-(4-amino-4H-1,2,4-triazol-3-ylthio)-2-hydroxy-3,4-dihydro-2H-benzo[e][1,2]oxaborinine-8-carboxylic acid]
Imipenem + 14 MIC [1]: X (key: X: MIC of less than 1 μg/mL; Y: MIC of 1 μg/mL to 10 μg/mL; Z: MIC of greater than 10 μg/mL) | Meropenem + 14 MIC [1]: X (key: X: MIC of less than 1 μg/mL; Y: MIC of 1 μg/mL to 10 μg/mL; Z: MIC of greater than 10 μg/mL) | Imipenem + 14 MIC [2]: X (key: X: MIC of less than 1 μg/mL; Y: MIC of 1 μg/mL to 10 μg/mL; Z: MIC of greater than 10 μg/mL) | Meropenem + 14 MIC [2]: X (key: X: MIC of less than 1 μg/mL; Y: MIC of 1 μg/mL to 10 μg/mL; Z: MIC of greater than 10 μg/mL) | Imipenem + 14 MIC [3]: Y (key: X: MIC of less than 1 μg/mL; Y: MIC of 1 μg/mL to 10 μg/mL; Z: MIC of greater than 10 μg/mL) | Meropenem + 14 MIC [3]: Y (key: X: MIC of less than 1 μg/mL; Y: MIC of 1 μg/mL to 10 μg/mL; Z: MIC of greater than 10 μg/mL) | Imipenem + 14 MIC [4]: X (key: X: MIC of less than 1 μg/mL; Y: MIC of 1 μg/mL to 10 μg/mL; Z: MIC of greater than 10 μg/mL) | Meropenem + 14 MIC [4]: X (key: X: MIC of less than 1 μg/mL; Y: MIC of 1 μg/mL to 10 μg/mL; Z: MIC of greater than 10 μg/mL) | Imipenem + 14 MIC [5]: X (key: X: MIC of less than 1 μg/mL; Y: MIC of 1 μg/mL to 10 μg/mL; Z: MIC of greater than 10 μg/mL) | Meropenem + 14 MIC [5]: X (key: X: MIC of less than 1 μg/mL; Y: MIC of 1 μg/mL to 10 μg/mL; Z: MIC of greater than 10 μg/mL) | Imipenem + 14 MIC [6]: X (key: X: MIC of less than 1 μg/mL; Y: MIC of 1 μg/mL to 10 μg/mL; Z: MIC of greater than 10 μg/mL) | Meropenem + 14 MIC [6]: X (key: X: MIC of less than 1 μg/mL; Y: MIC of 1 μg/mL to 10 μg/mL; Z: MIC of greater than 10 μg/mL) | Imipenem + 14 MIC [7]: Y (key: X: MIC of less than 1 μg/mL; Y: MIC of 1 μg/mL to 10 μg/mL; Z: MIC of greater than 10 μg/mL) | Meropenem + 14 MIC [7]: Y (key: X: MIC of less than 1 μg/mL; Y: MIC of 1 μg/mL to 10 μg/mL; Z: MIC of greater than 10 μg/mL) | Imipenem + 14 MIC [8]: X (key: X: MIC of less than 1 μg/mL; Y: MIC of 1 μg/mL to 10 μg/mL; Z: MIC of greater than 10 μg/mL) | Meropenem + 14 MIC [8]: X (key: X: MIC of less than 1 μg/mL; Y: MIC of 1 μg/mL to 10 μg/mL; Z: MIC of greater than 10 μg/mL) | Imipenem + 14 MIC [9]: Y (key: X: MIC of less than 1 μg/mL; Y: MIC of 1 μg/mL to 10 μg/mL; Z: MIC of greater than 10 μg/mL) | Meropenem + 14 MIC [9]: Z (key: X: MIC of less than 1 μg/mL; Y: MIC of 1 μg/mL to 10 μg/mL; Z: MIC of greater than 10 μg/mL) | Imipenem + 14 MIC [10]: X (key: X: MIC of less than 1 μg/mL; Y: MIC of 1 μg/mL to 10 μg/mL; Z: MIC of greater than 10 μg/mL) | Meropenem + 14 MIC [10]: Y (key: X: MIC of less than 1 μg/mL; Y: MIC of 1 μg/mL to 10 μg/mL; Z: MIC of greater than 10 μg/mL) | Imipenem + 14 MIC [11]: X (key: X: MIC of less than 1 μg/mL; Y: MIC of 1 μg/mL to 10 μg/mL; Z: MIC of greater than 10 μg/mL) | Meropenem + 14 MIC [11]: X (key: X: MIC of less than 1 μg/mL; Y: MIC of 1 μg/mL to 10 μg/mL; Z: MIC of greater than 10 μg/mL) | Imipenem + 14 MIC [12]: X (key: X: MIC of less than 1 μg/mL; Y: MIC of 1 μg/mL to 10 μg/mL; Z: MIC of greater than 10 μg/mL) | Meropenem + 14 MIC [12]: X (key: X: MIC of less than 1 μg/mL; Y: MIC of 1 μg/mL to 10 μg/mL; Z: MIC of greater than 10 μg/mL) | Imipenem + 14 MIC [13]: Y (key: X: MIC of less than 1 μg/mL; Y: MIC of 1 μg/mL to 10 μg/mL; Z: MIC of greater than 10 μg/mL) | Meropenem + 14 MIC [13]: Y (key: X: MIC of less than 1 μg/mL; Y: MIC of 1 μg/mL to 10 μg/mL; Z: MIC of greater than 10 μg/mL) | Imipenem + 14 MIC [14]: X (key: X: MIC of less than 1 μg/mL; Y: MIC of 1 μg/mL to 10 μg/mL; Z: MIC of greater than 10 μg/mL) | Meropenem + 14 MIC [14]: X (key: X: MIC of less than 1 μg/mL; Y: MIC of 1 μg/mL to 10 μg/mL; Z: MIC of greater than 10 μg/mL) | Imipenem + 14 MIC [15]: X (key: X: MIC of less than 1 μg/mL; Y: MIC of 1 μg/mL to 10 μg/mL; Z: MIC of greater than 10 μg/mL) | Meropenem + 14 MIC [15]: Y (key: X: MIC of less than 1 μg/mL; Y: MIC of 1 μg/mL to 10 μg/mL; Z: MIC of greater than 10 μg/mL) | Imipenem + 14 MIC [16]: Y (key: X: MIC of less than 1 μg/mL; Y: MIC of 1 μg/mL to 10 μg/mL; Z: MIC of greater than 10 μg/mL) | Meropenem + 14 MIC [16]: Z (key: X: MIC of less than 1 μg/mL; Y: MIC of 1 μg/mL to 10 μg/mL; Z: MIC of greater than 10 μg/mL) | Imipenem + 14 MIC [17]: X (key: X: MIC of less than 1 μg/mL; Y: MIC of 1 μg/mL to 10 μg/mL; Z: MIC of greater than 10 μg/mL) | Meropenem + 14 MIC [17]: X (key: X: MIC of less than 1 μg/mL; Y: MIC of 1 μg/mL to 10 μg/mL; Z: MIC of greater than 10 μg/mL)
